Experimental data published in patent US9180160B2, “Complement inhibitors for treatment of injury from intracerebral hemorrhage” (The Trustees of the University of Pennsylvania, priority 2008, dated 2015).
“Also recorded” adds a separate entry of the source.

How the values were obtained:
[1] = system: C57BL/6J mice subjected to ICH; assay: 28-point neurological function score after ICH (autologous blood infusion); assay type: in vivo
Method: (§1) Animal Preparation and Intracerebral Infusion. Adult male C57BL/6J mice weighing 23-30 g were used. Mice were randomized to receive intraperitoneal injection of either C3aRA (1 mg/kg) (SB290157, Calbiochem, Darmstadt, Germany) diluted in PBS and DMSO (1.16% v/v), or an equal volume of vehicle (PBS and DMSO, 1.16% DMSO v/v) either 45 minutes prior to ICH induction or 6 and 12 hours after induction of ICH, followed in both cohorts by twice daily doses for 72 hours. […] Sham animals were given PBS and DMSO (1.16% v/v) in the same manner.
Mice were anesthetized with a single intraperitoneal dose of ketamine (90 mg/kg) and xylazine (5 mg/kg). Next, the mice were placed in a stereotactic frame (ASI Instruments, Inc., Warren, Mich., USA) and subjected to ICH using autologous blood infusion as previously described (Rynkowski M A et al, 2008, Nat Protoc 3: 122-128), Briefly, a 1-mm burr hole was drilled 2.3 mm lateral to the midline and 0.2 mm anterior to the bregma. Thirty μL of autologous whole blood were drawn from the tail artery into a capillary tube. A 30-gauge needle was then advanced stereotactically through the burr hole into the right striatum (coordinates: 0.2 mm anterior, 2.3 mm lateral to the bregma, 3.5 mm ventral). Using a microinfusion pump (KDS220, KD Scientific Inc., Holliston, Mass., USA), 5 μL was delivered at a rate of 1.5 μL per minute. After a 7-minute period, an additional 25 μL was delivered at a constant rate of 1.5 μL per minute. […]
Neurofunction and behavioral testing. Sensorimotor function was evaluated by means of the 28-point neurological function score, corner test and forelimb placing tests, which were performed pre-operatively and at 6, 24, 48 and 72 hour post-injury. Navigational memory was evaluated with the means of a Morris water-maze (MWM) test pre-operatively and at 72 hours post ICH. […]
Neurological function. Acute neurological deficits were assessed using a 28-point scoring system including body symmetry, gait, climbing, circling behavior, front limb symmetry, compulsory circling and whisker response. […]

[2] = system: C57BL/6J mice subjected to ICH; assay: Flow cytometric analysis of granulocyte infiltration and microglial activation after ICH; assay type: in vivo; details: then twice daily, mean±SEM
Method: as §1
Mice were anesthetized with a single intraperitoneal dose of ketamine (90 mg/kg) and xylazine (5 mg/kg). Next, the mice were placed in a stereotactic frame (ASI Instruments, Inc., Warren, Mich., USA) and subjected to ICH using autologous blood infusion as previously described (Rynkowski M A et al, 2008, Nat Protoc 3: 122-128), Briefly, a 1-mm burr hole was drilled 2.3 mm lateral to the midline and 0.2 mm anterior to the bregma. Thirty μL of autologous whole blood were drawn from the tail artery into a capillary tube. A 30-gauge needle was then advanced stereotactically through the burr hole into the right striatum (coordinates: 0.2 mm anterior, 2.3 mm lateral to the bregma, 3.5 mm ventral). Using a microinfusion pump (KDS220, KD Scientific Inc., Holliston, Mass., USA), 5 μL was delivered at a rate of 1.5 μL per minute. After a 7-minute period, an additional 25 μL was delivered at a constant rate of 1.5 μL per minute. After a period of 10 minutes, the needle was slowly removed, the burr hole was occluded with bone wax and the skin incision was closed with Nexaband® (Abbott Laboratories, North Chicago, Ill.). Sham animals received only needle insertion. […]
Preparation of brains. Both cerebral hemispheres were analyzed for inflammatory cells using flow cytometry. […]
Flow cytometric analysis. […] Flow cytometric analysis was carried out using a FACSCalibur (BD Biosciences, Franklin Lakes, N.J., USA), and the data were analyzed using FlowJo software (Tree Star, Ashland, Oreg., USA). […]

[3] = 1 mg/kg i.p. first at 6 h and 12 h after ICH, then twice daily for 72 hours, versus vehicle
[4] = 1 mg/kg i.p. 45 minutes prior to ICH, 72 hours after ICH

Row | Compound | 28-point neurological score ([1]; 1 mg/kg i.p. 45 minutes prior to ICH, then twice daily, 72 hours after ICH) | 28-point neurological score [1, 3] | activated microglia, hemorrhagic/non-hemorrhagic hemisphere ratio [2, 4] | granulocytes, hemorrhagic/non-hemorrhagic hemisphere ratio [2, 4] | granulocyte infiltration, hemorrhagic/non-hemorrhagic ratio ([2]; 1 mg/kg i.p. first at 6 h and 12 h after ICH, 3 days after ICH)
1 | NC(N)=NCCC[C@H](NC(=O)COCC(c1ccccc1)c1ccccc1)C(=O)O [C3aRA] | no significant deficits compared with sham animals | significant improvement at 24, 48, and 72 hours; also recorded: significant improvement at 24, 48 and 72 hours | 3.67±0.45 | 3.21±0.52 | –
2 | Acetyl-Phe-[Orn-Pro-D-cyclohexylalanine-Trp-Arg] [C5aRA] | – | significant improvement at 24, 48 and 72 hours | – | – | 1.7793±0.36
